The supplement of paper PMC13380429
Counter-ions that a name gives are not always drawn.

What was measured:
Settings in all cases: 72 h
HepG2 [1] = test: relative viability EC50 (midpoint between 100% and the lowest measured viability); higher = less toxic
Vero E6 [2] = test: as above
Caco-2 [3] = test: as above
Calu-3 [4] = test: cell viability relative to DMSO; higher = less toxic
HepG2 [5] = test: as above
Vero E6 [6] = test: as above
U2OS [7] = test: as above
Caco-2 [8] = test: as above
Calu-3 [9] = test: drug sensitivity score (DSS) for viability; higher = more toxic; extreme values may be limits of the assay
HepG2 [10] = test: as above
Vero E6 [11] = test: as above
U2OS [12] = test: as above
Caco-2 [13] = test: as above
U2OS [14] = test: relative viability EC50 (midpoint between 100% and the lowest measured viability); higher = less toxic

SMILES	relative viability EC50 (HepG2 [1])	relative viability EC50 (Vero E6 [2])	relative viability EC50 (Caco-2 [3])	cell viability (Calu-3 [4]; 1 nM)	cell viability (Calu-3 [4]; 10 nM)	cell viability (Calu-3 [4]; 100 nM)	cell viability (Calu-3 [4]; 1000 nM)	cell viability (Calu-3 [4]; 10000 nM)	cell viability (HepG2 [5]; 1 nM)	cell viability (HepG2 [5]; 10 nM)	cell viability (HepG2 [5]; 100 nM)	cell viability (HepG2 [5]; 1000 nM)	cell viability (HepG2 [5]; 10000 nM)	cell viability (Vero E6 [6]; 1 nM)	cell viability (Vero E6 [6]; 10 nM)	cell viability (Vero E6 [6]; 100 nM)	cell viability (Vero E6 [6]; 1000 nM)	cell viability (Vero E6 [6]; 10000 nM)	cell viability (U2OS [7]; 1 nM)	cell viability (U2OS [7]; 10 nM)	cell viability (U2OS [7]; 100 nM)	cell viability (U2OS [7]; 1000 nM)	cell viability (U2OS [7]; 10000 nM)	cell viability (Caco-2 [8]; 1 nM)	cell viability (Caco-2 [8]; 10 nM)	cell viability (Caco-2 [8]; 100 nM)	cell viability (Caco-2 [8]; 1000 nM)	cell viability (Caco-2 [8]; 10000 nM)	drug sensitivity score (Calu-3 [9])	drug sensitivity score (HepG2 [10])	drug sensitivity score (Vero E6 [11])	drug sensitivity score (U2OS [12])	drug sensitivity score (Caco-2 [13])	relative viability EC50 (U2OS [14])
Cc1cccc(-c2[nH]c(C(C)(C)C)nc2-c2ccc3c(c2)OCO3)n1	1.52 µM	> 10 µM	1.49 µM	102%	95.2%	107%	103%	70.3%	94.6%	102%	101%	75.2%	4.5%	104%	101%	107%	96.2%	81.7%	98.8%	98.6%	90.6%	95.4%	69.2%	95.4%	94.3%	98.3%	77.1%	15%	1.1	9.1	0.9	2.1	8.2	
N#Cc1ccc(COC[C@H]2O[C@@H](n3c(NCc4ccc(Cl)c(Cl)c4)nc4c(N)ncnc43)[C@H](O)[C@@H]2O)cc1	1.66 µM	> 10 µM		96.9%	93.3%	99.6%	86.2%	52.8%	94.2%	93.4%	101%	82.5%	20.4%	101%	97.8%	106%	99.9%	99.4%	95.6%	97.9%	93.7%	97.4%	64.9%	94.5%	98.9%	91.8%	101%	52.8%	4.5	7.2	0	2	2.3	
Nc1cc2c3ccccc3ccc2c2ccccc12 [6-aminochrysene]																													0	3	0.2	4.4		
CN(C)[C@@H]1C(O)=C(C(N)=O)C(=O)[C@@]2(O)C(O)=C3C(=O)c4c(O)ccc(Cl)c4[C@@](C)(O)[C@H]3C[C@@H]12 [CHLORTETRACYCLINE HYDROCHLORIDE]																													0	0	0	0		
Nc1nc2cc(-c3ccc4ncc(C(=O)N5CCOCC5)n4c3)ccc2o1 [MLN1117]		> 10 µM		94.2%	102%	104%	96.8%	64.7%	98.1%	101%	102%	96.3%	54.5%	104%	106%	106%	95.1%	85.8%	96.4%	95.2%	106%	91.2%	84.3%	107%	101%	107%	89.9%	66.6%	2.2	2.9	0.5	1	3	> 10 µM
Oc1cccc(Nc2ncc(F)c(Nc3cccc(O)c3)n2)c1 [R112]	2.72 µM	3.03 µM		92.2%	100%	92.6%	92.6%	74.8%	106%	102%	107%	96.1%	30.9%	103%	102%	99.9%	99%	46.6%	97.6%	101%	95.6%	98.5%	30.2%	103%	107%	99.1%	94.7%	62.1%	1.4	4.4	3	4	2.7	3.01 µM
CCNC(=O)[C@@H]1CCCN1C(=O)[C@H](CCCNC(=N)N)NC(=O)[C@H](CC(C)C)NC(=O)[C@@H](C)NC(=O)[C@H](Cc1ccc(O)cc1)NC(=O)[C@H](CO)NC(=O)[C@H](Cc1c[nH]c2ccccc12)NC(=O)[C@H](Cc1cnc[nH]1)NC(=O)[C@@H]1CCC(=O)N1 [alarelin]	> 10 µM	> 10 µM	> 10 µM						97.8%	103%	101%	92%	93.7%	109%	106%	104%	96.9%	102%						116%	100%	86.3%	118%	102%		0	0		0	
CC1(C)S[C@@H]2[C@H](NC(=O)[C@H](N)c3ccccc3)C(=O)N2[C@H]1C(=O)O [ampicillin]																													0	0	0	0		
CC(=O)OCC(=O)[C@@]1(O)[C@@H](C)C[C@H]2[C@@H]3CCC4=CC(=O)C=C[C@]4(C)[C@@]3(F)[C@@H](O)C[C@@]21C [betamethasone-acetate]																													0	0	0	0		
Nc1nc(Cl)nc2c1ncn2[C@@H]1O[C@H](CO)[C@@H](O)[C@@H]1F [clofarabine]	0.192 µM			91.4%	106%	96.2%	64.8%	54.6%	94.1%	100%	89.2%	33.3%	39.3%	96.2%	91.5%	96.6%	87.8%	55.9%	99.9%	101%	105%	79.7%	65.5%	90.2%	102%	88.8%	85.9%	71.5%	6.8	14.1	4	4	2.8	
C/C=C(/C)C(=O)O[C@H]1[C@H](OC(C)=O)[C@@]2(CO)C(CC1(C)C)C1=CCC3[C@@]4(C)CCC(O[C@@H]5O[C@H](C(=O)O)[C@@H](O[C@@H]6O[C@H](CO)[C@@H](O)[C@H](O)[C@H]6O)[C@H](O)[C@H]5O[C@@H]5O[C@H](CO)[C@@H](O)[C@H](O)[C@H]5O)[C@](C)(CO)C4CC[C@@]3(C)[C@]1(C)C[C@H]2O.C/C=C(\C)C(=O)O[C@H]1[C@H](OC(C)=O)[C@@]2(CO)C(CC1(C)C)C1=CCC3[C@@]4(C)CCC(O[C@@H]5O[C@H](C(=O)O)[C@@H](O[C@@H]6O[C@H](CO)[C@@H](O)[C@H](O)[C@H]6O)[C@H](O)[C@H]5O[C@@H]5O[C@H](CO)[C@@H](O)[C@H](O)[C@H]5O)[C@](C)(CO)C4CC[C@@]3(C)[C@]1(C)C[C@H]2O (some centres not stated) [escin]																													0	3.8	4.1	1.5		
C[C@]12CC[C@@H]3c4ccc(O)cc4CC[C@H]3[C@@H]1CC[C@@H]2O [estradiol]																													0	0	0	0		
CN(C)c1ccc2nc3ccc(=[N+](C)C)cc-3sc2c1 [methylene-blue]																													6.1	9.2	5.1	3		
O=C(O)C(=O)O.[NH-][C@@H]1CCCC[C@H]1[NH-].[Pt+2] [oxaliplatin]																													0	6	4.8	0.1		
C=C1/C(=C\C=C2/CCC[C@]3(C)[C@@H]([C@H](C)CC[C@@H](O)C(C)C)CC[C@@H]23)C[C@@H](O)C[C@@H]1O [tacalcitol]																													0	0	1.9	0.3		
Clc1ccc2nsnc2c1NC1=NCCN1 [tizanidine]																													0	0	0	0		
